Laboratory results published in patent US8524274B2, “Liposomal composition comprising an active ingredient for relaxing smooth muscle, the production of this composition and the therapeutic use thereof” (Polymun Scientific Immunbiologische Forschung GmbH, priority 2004, dated 2013).
Counter-ions that a name gives are not always drawn.

What was measured:
[1] = Solubility of the active ingredient in loading buffer systems and in water; type: physicochemical; settings: for solubility in citrate buffer: citric acid (intraliposomal) and citric acid/sodium carbonate pH 7.5-8.0 (extraliposomal)
Excerpt: NH3, which is present in a reversible equilibrium with ammonium sulphate in the intraliposomal aqueous medium, attempts to migrate out through the liposome membrane and to leave behind an H^+. Sildenafil migrates in the opposite direction into the liposome, takes up the hydrogen ion H^+, becomes more hydrophilic thereby and therefore remains in the […]. In this way, sildenafil can be efficiently loaded into liposomes. This applies in a similar manner also to the sildenafil alternatives tadalafil and vardenafil.

[2] = Active loading of DPPC/cholesterol liposomes via H+ gradient; active ingredient and lipid content by rp-HPLC; type: physicochemical; settings: two-stage variant; converted from the inclusion rate
Procedure: External loading of liposomes with sildenafil by means of H^+ gradient. The best inclusion rates were achieved under the following conditions. The lipids (molar DPPC:cholesterol ratio=55:45; in total 13 to 15 μmol per ml of aqueous phase) were dissolved in ethanol and this solution was injected into 125 mM ammonium sulphate solution. After spontaneous vesicle formation, the remaining, external ammonium sulphate solution was replaced by a 5% glucose solution and sildenafil citrate was added. In this way, an H^+ gradient formed between the inside and outside of the lipid vesicles. pH values below 2.5 are less suitable owing to resultant hydrolysis problems, and pH values greater than 5.5 are also not preferred, owing to the increasingly flat H^+ gradient. An aqueous 125 mM ammonium sulphate solution typically has a pH in the range of about 5-5.5. After removal of sildenafil which has not been included by means of gel filtration, both the active ingredient content and the lipid content were determined by means of rp-HPLC. Liposome size and distribution were determined by means of photon correlation spectroscopy (PCS). […]

Compound	solubility in citrate buffer [1]	solubility in water ([1]; water)	active ingredient per ml of liposomal suspension [2]
CCCc1nn(C)c2c(=O)[nH]c(-c3cc(S(=O)(=O)N4CCN(C)CC4)ccc3OCC)nc12 [sildenafil citrate]	insoluble or scarcely soluble	dissolves very readily	–
CCCc1nn(C)c2c(=O)[nH]c(-c3cc(S(=O)(=O)N4CCN(C)CC4)ccc3OCC)nc12 [sildenafil]	only poorly soluble or not soluble at all	–	1000-1500 μg of active ingredient per ml of liposomal suspension
